These results are taken from patent publication US10149855B2, “Gamma-secretase inhibition reduce APOC3 levels and plasma triglycerides” (THE TRUSTEES OF COLUMBIA UNIVERSITY IN THE CITY OF NEW YORK, priority 2014, dated 2018).

For one data set, the system named is DIO mice. In words: Fasted/refed plasma glucose and glucose clearance in GSI-treated mice. In kind it is in vivo. Conditions: compared to vehicle (FIG. 3 Panel A).
For the next data set, the system named is ApoC3. In words: Plasma ApoC3 levels in GSI-treated mice. In kind it is in vivo. The source says: (§1) Plasma triglyceride lowering in genetic (leptin deficient ob/ob mice) or diet-induced mouse models of obesity was even more profound, with reductions approaching 75% of vehicle-treated animals. […] L-Ncst mice had similar reductions in plasma triglyceride as GSI-treated mice, proof that the mechanism of GSI-induced reduction in plasma triglyceride is through effects on liver. L-Ncst mice had approximately 40% reduced plasma triglyceride as compared to control mice when fed normal chow, but this rises to a staggering 70% reduction when mice were challenged with high-fat diet feeding. […] As such, gamma-secretase inhibition with GSIs or liver-specific gamma-secretase blockers would be predicted to have a greater, and perhaps synergistic, effect in reducing plasma triglyceride as compared to drugs that solely target ApoC3 expression.

For data set [1], the system named is mice. In words: Triglyceride secretion after lipoprotein lipase inhibition with Poloxamer 407. In kind it is in vivo. As to conditions: plasma TG after lipoprotein lipase inhibition with Poloxamer 407 (FIG. 7). The source says: DBZ-induced lower plasma TG in diet-induced obese (DIO) and leptin-deficient obese (ob/ob) mice is in the VLDL fraction. […] To differentiate these—we created a liver-specific gamma-secretase knockout mouse.

In data set [2] the test system is Lean mice, diet induced obese (DIO) mice, and leptin-deficient obese (ob/ob) mice. In words: Weight, glucose and insulin of mice administered GSI (DBZ) or vehicle. In kind it is in vivo. As to the method: Lean mice, diet induced obese (DIO) mice, and leptin-deficient obese (ob/ob) mice were administered either vehicle or GSI. [table]
Data set [3] deals with lean, diet-induced obese (DIO) and leptin-deficient obese (ob/ob) mice. Put plainly: Plasma/serum triglyceride levels in mice treated with GSI or vehicle. In kind it is in vivo. As for the experimental part: as §1, with “Mice were administered GSI or vehicle alone to determine the effect of GSI treatment on serum triglyceride levels. […] Plasma” for “Plasma”
For data set [4], the system named is mice. Conditions: mouse, in vivo.
The test system of the next data set is Nicastrin. Put plainly: shRNA-mediated knockdown of Nicastrin, ApoC3 secretion. In kind it is cell-based. As to conditions: mouse hepatocytes (FIG. 25).

For `C[C@H](NC(=O)Cc1cc(F)cc(F)c1)C(=O)N[C@@H]1C(=O)N(C)c2ccccc2-c2ccccc21` [GSI, N-[(1S)-2-[[(7S)-6,7-dihydro-5-methyl-6-oxo-5H-dibenz[b,d]azepin-7-yl]amino]-1-methyl-2-oxoethyl]-3,5-difluoro-benzeneacetamide], in the data set with DIO mice, the “fasted and refed glucose” value is on record as “reduced both fasted as well as refed (or exogenous) glucose”. Also, in the data set on ApoC3, the “plasma ApoC3 levels” value is “markedly and proportionately reduced”. Besides, the TG secretion entry in the data set on mice [1] is recorded as “does not affect TG secretion”. Besides, the Glucose in data set [2] (DIO mice) was 72 ± 5 mg/dL; in data set [2] (lean mice), 64 ± 2 mg/dL; in data set [2] (ob/ob mice), 98 ± 6 mg/dL. Besides, the Insulin amounted to 1.33 ± 0.32 ng/mL in data set [2] (DIO mice), 0.49 ± 0.04 ng/mL in data set [2] (lean mice) and 15.6 ± 3.25 ng/mL in data set [2] (ob/ob mice). For the same compound, in data set [3] (DIO and ob/ob mice (FIG. 5)), the “triglycerides in VLDL, LDL and HDL fractions” value is listed as “lowered triglycerides in the VLDL fraction”. The plasma triglyceride result in data set [3] (lean mice) is on record as “reduces plasma triglyceride in a dose-dependent manner”. Besides, the plasma triglyceride reduction in data set [3] (ob/ob or diet-induced obese mice, relative to vehicle-treated animals) is listed as around 75%. The “plasma triglyceride (TG)” value in data set [3] (obese mice (DIO and ob/ob), compared to vehicle (FIG. 4)) is on record as “lower plasma triglyceride”. Also, in the data set with mice [4], the “gastrointestinal (GI) toxicity” value is “not associated with apparent gastrointestinal (GI) toxicity”.
Consider “SEQ ID NO. 59: shRNA for knockdown of Nicastrin, sequence CTCCTTCCACAATCGGTATTA (listed as DNA, chemistry not fully specified; listed as Rattus norvegicus)”, for which, in the data set with Nicastrin, the ApoC3 secretion result was “reduces ApoC3 secretion”.
